# Experiments:
# T47D = test: Antiproliferative activity against human T47D cells assessed as inhibition of cell growth incubated for 72 hrs by MTT assay; format: functional, cell-based
# [1] = Selectivity index, ratio of IC50 for cytotoxicity against HEK293T cells to IC50 for antiproliferative activity against human HepG2 cells; format: toxicity, cell-based; conditions: HEK293T cells versus HepG2 cells, read-out: Ratio IC50
# [2] = Potency index, ratio of test compound IC50 to 2-methoxyestradiol IC50 for cytotoxicity against human HEK293T cells assessed as inhibition of cell growth incubated for 72 hrs by MTT assay; format: toxicity, cell-based, HEK-293T; conditions: read-out: Ratio IC50
# HeLa = test: Antiproliferative activity against human HeLa cells assessed as inhibition of cell growth incubated for 72 hrs by MTT assay; format: functional, cell-based
# HepG2 = test: Antiproliferative activity against human HepG2 cells assessed as inhibition of cell growth incubated for 72 hrs by MTT assay; format: functional, cell-based; conditions: HepG2, 72 h
# MCF7 = test: Antiproliferative activity against human MCF7 cells assessed as inhibition of cell growth incubated for 72 hrs by MTT assay; format: functional, cell-based; conditions: MCF7, 72 h
# [3] = Cytotoxicity against HEK293T cells assessed as inhibition of cell growth incubated for 72 hrs by MTT assay; format: toxicity, cell-based, HEK-293T; conditions: human
# SK-OV-3 = test: Antiproliferative activity against human SK-OV-3 cells assessed as inhibition of cell growth incubated for 72 hrs by MTT assay; format: functional, cell-based; conditions: SK-OV-3, 72 h
smiles,measurement,setting,value
C[C@]12CC[C@@H]3c4cc(NC(=O)C[Se]C#N)c(O)cc4CC[C@H]3[C@@H]1CCC2=O,IC50,T47D,22.8 µM
same,selectivity ratio,[1],15
same,selectivity ratio at 72 h,[2],3
same,IC50,HeLa,9.4 µM
same,IC50,HepG2,1 µM
same,IC50,MCF7,16.6 µM
same,IC50 at 72 h,[3],15.4 µM
same,IC50,SK-OV-3,2.6 µM
C[C@]12CC[C@@H]3c4cc(NC(=O)c5ccc(C[Se]C#N)cc5)c(O)cc4CC[C@H]3[C@@H]1CCC2=O,IC50,T47D,37.4 µM
same,IC50,HeLa,26.8 µM
same,IC50,HepG2,68.9 µM
same,IC50,MCF7,39.2 µM
same,IC50 at 72 h,[3],27.2 µM
same,IC50,SK-OV-3,49.5 µM
COc1cc2c(cc1O)CC[C@@H]1[C@@H]2CC[C@]2(C)[C@@H](O)CC[C@@H]12 [2-METHOXYESTRADIOL],IC50,T47D,25.2 µM
same,IC50,HeLa,8.6 µM
same,IC50,HepG2,2.3 µM
same,IC50,MCF7,> 70 µM
same,IC50 at 72 h,[3],4.6 µM
same,IC50,SK-OV-3,16.5 µM
COc1ccc2c(c1)CC[C@@H]1[C@@H]2CC[C@]2(C)C(OC(=O)C[Se]C#N)CC[C@@H]12 (stereo partly drawn),IC50,T47D,41.5 µM
same,IC50,HeLa,56.8 µM
same,IC50,HepG2,61.1 µM
same,IC50,MCF7,88.3 µM
same,IC50 at 72 h,[3],45.2 µM
same,IC50,SK-OV-3,52.4 µM
C[C@]12CC[C@@H]3c4cc(N)c(O)cc4CC[C@H]3[C@@H]1CCC2=O,IC50,T47D,50.5 µM
same,IC50,HeLa,> 70 µM
same,IC50,HepG2,56.3 µM
same,IC50,MCF7,> 70 µM
same,IC50 at 72 h,[3],36.4 µM
same,IC50,SK-OV-3,> 70 µM
C[C@]12CC[C@@H]3c4ccc(OCCCC[Se]C#N)cc4CC[C@H]3[C@@H]1CCC2=O,IC50,T47D,75.7 µM
same,IC50,HeLa,14 µM
same,IC50,HepG2,> 100 µM
same,IC50,MCF7,41.1 µM
same,IC50 at 72 h,[3],42.8 µM
same,IC50,SK-OV-3,49.7 µM
COc1ccc2c(c1)CC[C@@H]1[C@@H]2CC[C@]2(C)/C(=N/OC(=O)C[Se]C#N)CC[C@@H]12,IC50,T47D,24.2 µM
same,IC50,HeLa,26.3 µM
same,IC50,HepG2,62.5 µM
same,IC50,MCF7,18.8 µM
same,IC50 at 72 h,[3],25.2 µM
same,IC50,SK-OV-3,53.4 µM
C[C@]12CC[C@@H]3c4cc(NC(=O)CCCC[Se]C#N)c(O)cc4CC[C@H]3[C@@H]1CCC2=O,IC50,T47D,21.8 µM
same,IC50,HeLa,13.7 µM
same,IC50,HepG2,11 µM
same,IC50,MCF7,17.3 µM
same,IC50 at 72 h,[3],18.2 µM
same,IC50,SK-OV-3,15.6 µM
C[C@]12CC[C@@H]3c4ccc(OCCCCCCCC[Se]C#N)cc4CC[C@H]3[C@@H]1CCC2=O,IC50,T47D,59.2 µM
same,IC50,HeLa,5.6 µM
same,IC50,HepG2,42.5 µM
same,IC50,MCF7,8 µM
same,IC50 at 72 h,[3],8.9 µM
same,IC50,SK-OV-3,20.1 µM
COc1ccc2c(c1)CC[C@@H]1[C@@H]2CC[C@]2(C)C(NC(=O)c3ccc(C[Se]C#N)cc3)CC[C@@H]12 (stereo partly drawn),IC50,T47D,40.8 µM
same,IC50,HeLa,9.6 µM
same,IC50,HepG2,13.8 µM
same,IC50,MCF7,15.8 µM
same,IC50 at 72 h,[3],24.6 µM
same,IC50,SK-OV-3,22.4 µM
COc1ccc2c(c1)CC[C@@H]1[C@@H]2CC[C@]2(C)C(OC(=O)c3ccc(C[Se]C#N)cc3)CC[C@@H]12 (stereo partly drawn),IC50,T47D,> 100 µM
same,IC50,HeLa,47.5 µM
same,IC50,HepG2,35.9 µM
same,IC50,MCF7,55.5 µM
same,IC50 at 72 h,[3],29.7 µM
same,IC50,SK-OV-3,56.3 µM
